Source: US12661335B2, “Halogenated xanthene-containing topical anti-gram-positive bacterial ophthalmic composition and method” (Provectus Pharmatech, Inc., priority 2021, dated 2026)

Test system: M. smegmatis 607 ™ (RB mutant)
Assay type: cell-based, Mycobacterium smegmatis

| Molecule | susceptibility of the RB-resistant strain to TB drugs |
| --- | --- |
| Capreomycin | susceptible |
| NCC[C@H](O)C(=O)N[C@@H]1C[C@H](N)[C@@H](O[C@H]2O[C@H](CN)[C@@H](O)[C@H](O)[C@H]2O)[C@H](O)[C@H]1O[C@H]1O[C@H](CO)[C@@H](O)[C@H](N)[C@H]1O [Amikacin] | susceptible |
| CCc1cc(C(N)=S)ccn1 [Ethionamide (ETH), Ethionamide] | susceptible |
| NNC(=O)c1ccncc1 [Isoniazid (INH), Isoniazid] | cross-resistance |
| NC[C@H]1O[C@@H](O[C@H]([C@H]2O[C@@H](n3ccc(=O)[nH]c3=O)[C@H](O)[C@@H]2O)[C@H](NCCCC(=O)NCc2ccc(N3CCC(Oc4ccc(OC(F)(F)F)cc4)CC3)cc2)C(N)=O)[C@H](O)[C@@H]1O [APPB, aminouridyl phenoxypiperidinylbenzyl butanamide] | susceptible |
